Source: patent US20110086035A1, “IMMUNOTHERAPEUTIC METHODS AND MOLECULES” (priority 2008, published 2011)
Where two headings read alike, the source gives them in different places.

Assays:
[1] = tested on: T cells specific for FHT; test: DRB1*0401/FHT multimer staining of FHT-expanded cell lines; type: cell-based, human; conditions: PBMC of 3 donors (two DRB1*0401, one DRB1*0408) expanded 14 or 21 days; FHT bound to multimer of DRB1*0401; FIG. 7
Description: FIG. 7. Cell lines expanded using the FHT peptide contain T cells that bind specifically to the FHT peptide in the context of DRB1*0401. PBMC from 3 different donors were expanded with the FHT peptide for 14 or 21 days (IVS—In vitro stimulation). Two of the donors were DRB1*0401 positive and one was DRB1*0408 positive.
PBMC from 3 different donors were expanded with the FHT peptide for 14 or 21 days (IVS—In vitro stimulation). Two of the donors were DRB1*0401 positive and one was DRB1*0408 positive.

[2] = tested on: Asp f16-specific T cell lines of HLA-DRB1*04-positive donors; test: Restimulation of Asp f16-specific T cell lines with peptide-pulsed autologous monocytes, IFN-γ ELISA; type: cell-based, human; conditions: T cell lines of 3 HLA-DRB1*04-positive donors; monocytes pulsed with 1 μg/ml peptide; 24 h; FIG. 2B
Description: (§1) Antigen-specific T cell lines were generated by incubation of 1×10^7 whole PBMC per well in 6-well cell culture plates with 5 μg/ml recombinant protein or 1 μg/ml peptide antigen for 7 days. Lymphocyte cultures were supplemented with 5 U/ml IL-2 (Proleukin, Chiron, Ratingen, Germany) every other day and culture medium replenished as needed.
(§2) Autologous monocytes were isolated from whole PBMC by allowing cells to adhere to tissue culture dishes for 2 hours and subsequent extensive washing to remove non-adherent cells. For presentation of protein antigen, monocytes were cultured overnight in the presence of 5 μg/ml recombinant protein and harvested by mechanical abrasion the next day. For presentation of peptide antigen, monocytes were incubated overnight without antigen and mature cells harvested and pulsed with 1 μg/ml peptide antigen for 1 hour. Transduced autologous B cells were used as antigen-presenting cells (APC) after repeated culture on gamma-irradiated human CD40L-transfected feeder cells. […]
(§3) In order to define a common MHC class II epitope of the Asp f16 protein, lymphocyte donors were screened for the expression of the most abundant MHC class II allele HLA-DRB1*04 and Asp f16-specific T cell lines generated as described. […] All T cell cultures were then exposed to both peptide and recombinant protein for 24 hours and IFN-γ production quantified.

[3] = tested on: HLA-DRB1*04; test: Binding to HLA-DRB1*04; parameters: species or system human
Description: Whether or not a peptide binds to HLA-DRB1*04 may be determined using any method known in the art. A suitable method is shown in Example 1, with particular reference to FIG. 2B. One method is to introduce the peptide into PBMCs taken from an HLA-DRB1*04 human and determine whether an activating or proliferative response is obtained which is indicative of binding. Binding to HLA-DRB1*04 may also be assessed using the methods described in FIGS. 7 and 8.
(§4) Using limiting dilution, individual T cell clones were generated. Following expansion, the clones were either left un-stimulated, stimulated with FHT peptide or stimulated with HLA restricted FHT loaded LCL. IFNg production was then measured in a standard ELISA.

[4] = tested on: A. fumigatus conidia; test: Confrontation assay: killing of A. fumigatus conidia by monocytes pre-incubated with T cell supernatant; type: cell-based, Aspergillus fumigatus; conditions: monocytes pre-incubated with supernatant of T cell clones activated with FHT peptide-pulsed APC; 3 hours; FIG. 5
Description: (§5) Dendritic cells (DC) were generated from monocytes by addition of 500 U/ml GM-CSF (PromoCell, Heidelberg, Germany) and 700 U/ml IL-4 (R&D systems, Wiesbaden-Nordenstadt, Germany) to the culture medium. Immature dendritic cells were incubated for 24 hours with either live A. fumigatus or C. albicans conidia or fungus killed by treatment with ethanol 0, 4, 8 or 12 hours after germination and subsequently co-incubated, with Aspergillus peptide-specific T cell clones for further 24 hours. Dendritic cells used for presentation of protein or peptide antigen were induced to mature by addition of 25 ng/ml TNF-α, 5 ng/ml IL-1β, 10 ng/ml IL-6 (all R&D systems, Wiesbaden-Nordenstadt, Germany) and 1 μg/ml PGE2 (Pharmacia, Ratingen, Germany) prior to antigen-pulsing and co-incubation with antigen-specific T cells. In one experiment the antigen-presenting dendritic cells fed with live Aspergillus conidia were incubated with either 25 μg/ml control antibody or MHC class II blocking antibody (No 555556, BD Biosciences, Heidelberg, Germany) for 1 hour prior to addition of the T cells. Antibody also remained present during the 24 hours co-incubation of T cells with antigen-presenting DC. […]
Killing of A. fumigatus conidia by monocytes was quantified using confrontation assays. […] Each experimental setting was determined in quadruple. […] Colonies were quantified after incubation at 37° C. over night. […]

[5] = tested on: PBMC from HLA-DRB1*04-positive donors; test: Criss-cross restimulation of T cell lines generated with FHT peptide or recombinant Asp f16 protein, IFN-γ; type: cell-based, human; conditions: lines generated for one week with peptide or protein, exposed to both for 24 hours; FIG. 2C
Description: as §1, §2, §3

[6] = tested on: T cell clones; test: IFNg ELISA of T cell clones stimulated with FHT peptide or FHT loaded HLA restricted LCL; type: cell-based, human; conditions: in all but one of the clones; FIG. 8
Description: FIG. 8. […] Using limiting dilution, individual T cell clones were generated. Following expansion, the clones were either left un-stimulated, stimulated with FHT peptide or stimulated with HLA restricted FHT loaded LCL. IFNg production was then measured in a standard ELISA.
as §4

[7] = tested on: FHT-specific CD4+ T cell clones; test: Restimulation of FHT-specific CD4+ T cell clones with antigen-loaded dendritic cells, IFN-γ ELISA; type: cell-based, human
Description: For generation of antigen-specific T cell clones PBMC were stimulated repeatedly with 1 μg/ml FHT peptide once weekly for 4 weeks. Subsequently T cell clones were generated by limiting dilution in 96-well plates and expanded using the rapid expansion protocol as described by Beck et al^14. A CMVpp65-specific CD4^+ T cell clone used in control experiments was generated accordingly by limiting dilution of T cells stimulated with pp65 peptide antigen (kindly provided by Jan Diekmann).
as §5, with “cells.” for “cells. In one experiment the antigen-presenting dendritic cells fed with live Aspergillus conidia were incubated with either 25 μg/ml control antibody or MHC class II blocking antibody (No 555556, BD Biosciences, Heidelberg, Germany) for 1 hour prior to addition of the T cells. Antibody also remained present during the 24 hours co-incubation of T cells with antigen-presenting DC.”

[8] = tested on: phoenix GALV; type: cell-based, human; conditions: point mutation His136Leu versus Asp f1
Description: The gene encoding the A. fumigatus Asp f16 protein (NCBI accession number AY169706) was cloned into the eukaryotic expression vector pcDNA3.1-TOPO (Invitrogen, Karlsruhe, Germany) with N- and C-terminal FLAG®-Tag (Sigma-Aldrich, Muenchen, Germany). The gene was amplified from cDNA kindly provided by Utz Reichard (University of Goettingen, Germany). The gene encoding Asp f1 protein (NCBI accession number M83781) was cloned accordingly, omitting the leader sequence (cDNA kindly provided by Prof. Dr. Stefan Stevanović, University of Tuebingen, Germany).
pcDNA3.1-aspf16-FLAG and pcDNA3.1-aspf1-H136L-FLAG expression vector was introduced into the transgenic human cell line phoenix GALV^20 via calcium phosphate transfection. Parental as well as transfected producer cells were cultivated in DMEM medium (Invitrogen, Karlsruhe, Germany) supplemented with 10% heat-inactivated fetal calf serum (FCS, Biochrom, Berlin, Germany) and 100 U/ml Penicillin-Streptomycin (Invitrogen, Karlsruhe, Germany). 24 hours after transfection transgene expression from the CMV promoter of the expression vector was enhanced by addition of 1 mM sodium butyrate (Sigma-Aldrich, Muenchen, Germany) to the culture medium^21.
Recombinant Asp f1 and Asp f16 proteins were produced in a eukaryotic expression system and purified by standard methods via introduced FLAG-Tags. […]

[9] = tested on: PBMC from healthy donors; test: Restimulation of T cell lines generated with recombinant protein, IFN-γ ELISA; type: cell-based, human; conditions: PBMC of 4 healthy donors; significant = at least 50 pg/ml and/or more than 5-fold increase over unstimulated; FIG. 1A/1B
Description: Blood was obtained from HLA-DRB1*-typed healthy donors after informed consent. Peripheral blood mononuclear cells (PBMC) were isolated via centrifugation in Biocoll Separating Solution (Biochrom, Berlin, Germany) and either used directly after preparation or cryopreserved for later use. Cells were cultured in RPMI 1640 with L-Glutamine (Invitrogen, Karlsruhe, Germany), supplemented with 10% heat-inactivated, pooled human serum and 100 U/ml Penicillin-Streptomycin (Invitrogen, Karlsruhe, Germany).
as §1
Autologous monocytes were isolated from whole PBMC by allowing cells to adhere to tissue culture dishes for 2 hours and subsequent extensive washing to remove non-adherent cells. […]
PBMC from 4 different healthy donors, were stimulated for 7 days with purified recombinant Asp f1-H136L or Asp f16 protein. The generated T cell lines were then re-exposed for 24 hours to both proteins and the amount of secreted IFN-γ quantified in the supernatant by IFN-γ ELISA. […]

Molecule	detection of FHT specific T cells by multimer staining [1]	IFN-γ production in response to peptide [2]	binding to HLA-DRB1*04 [3]	binding to HLA-DRB1*04 ([3]; listed as FHT)	fungal survival after phagocytosis by monocytes [4]	specific cytokine (IFN-γ) production after restimulation with peptide and recombinant protein [5]	IFNg production with FHT loaded HLA restricted LCL compared to peptide alone [6]	IFN-γ production of FHT-specific CD4+ T cell clones in response to DC ([7]; autologous DC pulsed with synthetic peptide, 24 h, FIG. 3A)	cytotoxicity in the producing cell line [8]	IFN-γ after one week of stimulation and 24 h re-exposure to recombinant protein [9]	cross-reactivity of Asp f16-specific CD4+ TH1 T cell clones to pulsed APC ([7]; APC pulsed with purified protein)
FHTYTIDWTKDAVTW [FHT peptide]	can be detected by DRB1*0401/FHT multimer staining	abundant production of IFN-γ	has been shown to bind to HLA-DRB1*04	specifically binds HLADRB1*04	significantly reduce fungal survival	specific cytokine production could be detected	greatly increased specific cytokine production	high amounts of IFN-γ			
recombinant Asp f1-H136L protein: FLAG-tagged recombinant A. fumigatus Asp f1 ribotoxin with point mutation His136Leu, without leader sequence (protein, UniProt P67875 28-176, looked up, variant H136L, FLAG tag) Ribonuclease mitogillin: ATWTCINQQLNPKTNKWEDKRLLYSQAKAESNSHHAPLSDGKTGSSYPHWFTNGYDGNGKLIKGRTPIKFGKADCDRPPKHSQNGMGKDDHYLLEFPTFPDGHDYKFDSKKPKEDPGPARVIYTYPNKVFCGIVALQRGNQGDLRLCSH									nearly abolished cytotoxicity	only one of 4 donors responded robustly	not cross-reactive
